In patent US20070148110A1, “Aqueous-alcoholic depigmenting gels comprising mequinol and adapalene” (GALDERMA RESEARCH & DEVELOPMENT, priority 2004, published 2007):

Test system: skin of the tail of the SKH2 mouse
Experiment: Depigmenting activity on the skin of the tail of the SKH2 mouse
Format: in vivo
Parameters: key to depigmentation score: 0: natural pigmentation; −1: slight depigmentation; −2: moderate depigmentation; −3: marked depigmentation; −4: total depigmentation
Conditions: adapalene 0.1%; for depigmenting effect: topical, after 4 weeks, mequinol 2%; for depigmentation score: 4 weeks topical
Method: The purpose of the present study is to evaluate the depigmenting activity of a composition comprising either (i) 2% of mequinol, (ii) 0.1% of adapalene or (iii) the combination of both of them (composition according to the invention) on the skin of the tail of the SKH2 mouse after 4 weeks of topical application.
The two formulations gel and gel-cream are also compared. The two formulations (20 μl) are applied topically on the tails of SKH2 mice separated into two groups (female mice about 9 weeks old) at the rate of one application per day for 5 days over a period of 4 weeks.
Evaluation is based on various clinical observations: once a week, the pigmentation is evaluated as a score on a scale from 0 to 4. The basis of scoring is as follows: • 0: natural pigmentation Depigmentation scale: scores −1 to −4 • −1: slight depigmentation • −2: moderate depigmentation • −3: marked depigmentation • −4: total depigmentation

Row | Compound | depigmenting effect | depigmentation score (gel formulation) | depigmentation score (gel-cream formulation)
1 | COc1ccc(O)cc1 [Mequinol, 4-hydroxyanisole] | significant depigmenting effect |  | 
2 | COc1ccc(-c2ccc3cc(C(=O)O)ccc3c2)cc1C12CC3CC(CC(C3)C1)C2 [Adapalene, 6-[3-(1-adamantyl)-4-methoxyphenyl]-2-naphthoic acid] | does not have a depigmenting effect | 0 | 0
